Legend:
[1] = test system: GSH in rabbit corneal epithelial cells; experiment: Glutathione (GSH) level (OPA probe) in NaCl-treated corneal epithelial cells; format: cell-based; details: 10 μM PDSP, isotonic medium, compared to untreated
Method: We therefore examined the effects of PDSP on the intracellular ROS and GSH levels in NaCl-treated (HOP) rabbit corneal epithelial cells. Briefly, rabbit corneal epithelial cells were pretreated with 10 μM PDSP or a negative control peptide (ConP) for 20 hours, followed by treatment with NaCl to induce hyperosmotic stress. After NaCl treatment for another 24 hours, cells were assessed for ROS using a 2′,7′-dichlorodihydrofluorescein diacetate (H2DCFDA) probe, which is an ROS indicator dye. H2DCFDA can diffuse into cells, where its acetate ester linkages are cleaved by intracellular esterases and be oxidized by ROS, which converts the nonfluorescent dichlorodihydrofluorescein diacetate (H2DCFDA) to highly fluorescent […] (DCF).
Limbal stem cells were isolated from 6-month-old New Zealand white rabbits and continuously cultivated for 14 days by DMEM/F-12 basal medium based cell-suspension culture to achieve corneal-liked epithelial cell differentiation as previously described (Ho et al., 2013). […]
The GSH levels were quantified using a Glutathione Assay Kit (BioVision Research Products, Mountain View, Calif.) according to the manufacturer's recommendations. […] The fluorescence was read at 340 nm for excitation and 420 nm for emission on a SPECTRAmax GEMINI XS fluorescence microplate spectrophotometer (Molecular Devices, Sunnyvale, Calif.).

[2] = test system: MMP-9 mRNA; experiment: MMP-9 mRNA by quantitative real-time PCR in NaCl-treated corneal epithelial cells; format: cell-based, rabbit
Method: Therefore, we also examined the effects of PDSP on the MMP-9 mRNA expression and activity in NaCl-treated rabbit corneal epithelial cells. Briefly, rabbit corneal epithelial cells were treated as described above. […] Hyperosmotic stress induced a substantial (about 2-fold) increase in MMP-9 mRNA level (Negative control peptide, ConP, followed by NaCl treatment). […] The increases in MMP-9 mRNA levels substantially correlate with the expression of the MMP-9 protein as measured with SDS-gel and enzymatic activities, as shown in FIG. 7(B).
The total RNA was extracted from cells using TRIzol (Invitrogen) and treated with RNase free DNase I (Qiagen, Santa Clarita, CA) to remove genomic DNA and then purified with an RNA purification kit (Dynabeads; Invitrogen). Synthesis of cDNA was performed by Superscript III (Invitrogen). Quantitative real-time PCR was performed in a GeneAmp 7700 sequence detection system (Applied Biosystems, Foster City, CA). […] All determinations were measured in triplicate. The cycle threshold (Ct) values corresponded to the PCR cycle number at which fluorescence emission in real time reaches a threshold above the base-line emission were analyzed using GeneAmp 7700 SDS software. The Ct value of the PCR product of interest and a control mRNA (GAPDH) were then used to calculate relative quantities of mRNA between samples. […]

[3] = test system: MCP-1 mRNA; experiment: Ocular MCP-1 mRNA by quantitative real-time PCR in CEC dry eye mice; format: in vivo, C57BL6 mice; details: CEC 14 days, then topical PDSP for 5 days
Method: Dry eye is associated with abnormalities in the pre-corneal tear film and subsequent inflammatory changes in the entire ocular surface including the adnexa, conjunctiva and cornea. (see, Hessen et al., “Dry eye: An Inflammatory Ocular Disease,” J. Ophthalmic Vis. Res., 2014, 9(2): 240-250). Therefore, the effects of PDSPs in corneal inflammatory responses were next examined. Briefly, C57BL6 mice were housed in CEC for 14 days (Day 0) and then treatment with PDSP or vehicle were performed for additional 5 days (Day 5). Then, mRNA levels for inflammatory factors were evaluated by quantitative real-time PCR.
The total RNA was extracted from cells using TRIzol (Invitrogen) and treated with RNase free DNase I (Qiagen, Santa Clarita, CA) to remove genomic DNA and then purified with an RNA purification kit (Dynabeads; Invitrogen). […] Quantitative real-time PCR was performed in a GeneAmp 7700 sequence detection system (Applied Biosystems, Foster City, CA). […] All determinations were measured in triplicate. The cycle threshold (Ct) values corresponded to the PCR cycle number at which fluorescence emission in real time reaches a threshold above the base-line emission were analyzed using GeneAmp 7700 SDS software. The Ct value of the PCR product of interest and a control mRNA (GAPDH) were then used to calculate relative quantities of mRNA between samples.

[4] = test system: MMP-9 activity; experiment: MMP-9 activity by gelatin zymography in NaCl-treated corneal epithelial cells; format: cell-based, rabbit; details: PDSP pretreatment 20 hours, then hyperosmotic medium (463 mOsM) 24 hours
Method: Limbal stem cells were isolated from 6-month-old New Zealand white rabbits and continuously cultivated for 14 days by DMEM/F-12 basal medium based cell-suspension culture to achieve corneal-liked epithelial cell differentiation as previously described (Ho et al., 2013). To induce ROS or MMP-9 activity caused by hyperosmotic stress, cells were incubated overnight in hypertonic media (463 mOsm) achieved by addition of 90 mM NaCl. Cells cultured in DMEM/F-12 basal medium (309 mOsm) was used as negative control. To detect the preventive effect on hyperosmotic stress-induced ROS or MMP-9 activity, cells were pretreated with 10 μM PDSP for 20 hours before the treatment of NaCl.
To detect MMP-9 activity, 10 μL of culture medium was used to perform gelatin zymography as previous described method (Li et al., 2004). The band intensity was evaluated in zymography with a model GS-700 imaging densitometer (Bio-Rad Laboratories, Hercules, Calif.) and analyzed using Labworks 4.0 software.
To investigate the effect of PDSP on hyperosmotic stress-induced MMP-9 expression in corneal epithelial cells, cells were pretreated with the PDSP or control peptide (ConP) for 20 hours and then exposed the cells to hyperosmotic medium (463 mOsM) for another 24 hours. […] However, the PDSP pretreatment repressed the MMP-9 mRNA expression by a factor of 2-fold.

PDSP: 29mer, residues 93-121 of human PEDF: SLGAEQRTESIIHRALYYDLISSPDIHGT (SEQ ID NO:4) (listed as Homo sapiens)
GSH level without HOP stress (peptide alone) [1]: slight increase | MMP-9 mRNA levels without hyperosmotic stress (peptide alone) ([2]; PDSP alone, isotonic medium): did not have effect | repression of MMP-9 mRNA expression ([2]; PDSP pretreatment 20 hours, then hyperosmotic medium (463 mOsM) 24 hours): 2 fold | repression of ocular MCP-1 mRNA expression compared to vehicle-treated group [3]: 1.7 fold | repression of MMP-9 activity (gelatin zymography) [4]: 3 fold

Reference: patent publication US11760784B2, “Compositions comprising PEDF-derived short peptides and uses thereof” (BRIM Biotechnology, Inc., priority 2016, dated 2023)
